System: SARS-CoV-2
Test: microbe, parasite or virus in culture
Details: Severe acute respiratory syndrome coronavirus 2, Vero C1008, 48 h

Structure (SMILES): O=C(O)c1cccnc1Nc1cccc(C(F)(F)F)c1 [NIFLUMIC ACID]
- IC50: > 20 µM
- IC50 (read-out: pIC50 (converted)): > 20 µM

Structure (SMILES): O=C(N/N=C/c1ccc([N+](=O)[O-])o1)c1ccc(O)cc1 [NIFUROXAZIDE]
- IC50: > 20 µM
- IC50 (read-out: pIC50 (converted)): > 20 µM

Structure (SMILES): Cc1cn(-c2cc(NC(=O)c3ccc(C)c(Nc4nccc(-c5cccnc5)n4)c3)cc(C(F)(F)F)c2)cn1 [NILOTINIB]
- IC50: > 20 µM
- IC50 (read-out: pIC50 (converted)): > 20 µM

Structure (SMILES): CC1(C)NC(=O)N(c2ccc([N+](=O)[O-])c(C(F)(F)F)c2)C1=O [NILUTAMIDE]
- IC50: > 20 µM
- IC50 (read-out: pIC50 (converted)): > 20 µM

Structure (SMILES): C/C=C/C[C@@H](C)[C@@H](O)[C@H]1C(=O)N[C@@H](CC)C(=O)N(C)CC(=O)N(C)[C@@H]([C@@H](C)CC)C(=O)N[C@@H](C(C)C)C(=O)N(C)[C@@H](CC(C)C)C(=O)N[C@@H](C)C(=O)N[C@H](C)C(=O)N(C)[C@@H](CC(C)C)C(=O)N(C)[C@@H](CC(C)C)C(=O)N(C)[C@@H](C(C)C)C(=O)N1C [NIM811]
- IC50: > 20 µM
- IC50 (read-out: pIC50 (converted)): > 20 µM

Structure (SMILES): COCCOC(=O)C1=C(C)NC(C)=C(C(=O)OC(C)C)C1c1cccc([N+](=O)[O-])c1 (configuration not stated) [NIMODIPINE]
- IC50: > 20 µM
- IC50 (read-out: pIC50 (converted)): > 20 µM

Structure (SMILES): O=[N+]([O-])c1cncn1CCN1CCOCC1 [NIMORAZOLE]
- IC50: > 20 µM
- IC50 (read-out: pIC50 (converted)): > 20 µM

Structure (SMILES): Cc1ncc(CNC(=O)N(CCCl)N=O)c(N)n1 [NIMUSTINE]
- IC50: > 20 µM
- IC50 (read-out: pIC50 (converted)): > 20 µM

Structure (SMILES): COC(=O)c1ccc2c(c1)NC(=O)/C2=C(\Nc1ccc(N(C)C(=O)CN2CCN(C)CC2)cc1)c1ccccc1 [NINTEDANIB]
- IC50: > 20 µM
- IC50 (read-out: pIC50 (converted)): > 20 µM

Structure (SMILES): O=C1NCCN1c1ncc([N+](=O)[O-])s1 [NIRIDAZOLE]
- IC50: > 20 µM
- IC50 (read-out: pIC50 (converted)): > 20 µM

Structure (SMILES): COC(=O)C1=C(C)NC(C)=C(C(=O)OCC(C)C)C1c1ccccc1[N+](=O)[O-] (configuration not stated) [NISOLDIPINE]
- IC50: > 20 µM
- IC50 (read-out: pIC50 (converted)): > 20 µM

Structure (SMILES): CNCCC(Oc1ccccc1OC)c1ccccc1 (configuration not stated) [NISOXETINE]
- IC50: > 20 µM
- IC50 (read-out: pIC50 (converted)): > 20 µM

Structure (SMILES): CC(=O)Oc1ccccc1C(=O)Nc1ncc([N+](=O)[O-])s1 [NITAZOXANIDE]
- IC50: > 20 µM
- IC50 (read-out: pIC50 (converted)): > 20 µM

Structure (SMILES): CC(=O)Nc1ncc([N+](=O)[O-])s1 [NITHIAMIDE]
- IC50: > 20 µM
- IC50 (read-out: pIC50 (converted)): > 20 µM

Structure (SMILES): CCn1c(=O)c2ccccc2n(-c2cccc([N+](=O)[O-])c2)c1=O [NITRAQUAZONE]
- IC50: > 20 µM
- IC50 (read-out: pIC50 (converted)): > 20 µM

Structure (SMILES): O=C1CN=C(c2ccccc2)c2cc([N+](=O)[O-])ccc2N1 [NITRAZEPAM]
- IC50: > 20 µM
- IC50 (read-out: pIC50 (converted)): > 20 µM

Structure (SMILES): CCOC(=O)C1=C(C)NC(C)=C(C(=O)OC)C1c1cccc([N+](=O)[O-])c1 (configuration not stated) [NITRENDIPINE]
- IC50: > 20 µM
- IC50 (read-out: pIC50 (converted)): > 20 µM

Structure (SMILES): O=C1CN(/N=C/c2ccc([N+](=O)[O-])o2)C(=O)N1 [NITROFURANTOIN]
- IC50: > 20 µM
- IC50 (read-out: pIC50 (converted)): > 20 µM

Structure (SMILES): NC(=O)N/N=C/c1ccc([N+](=O)[O-])o1 [NITROFURAZONE]
- IC50: > 20 µM
- IC50 (read-out: pIC50 (converted)): > 20 µM

Structure (SMILES): O=[N+]([O-])OCC(CO[N+](=O)[O-])O[N+](=O)[O-] [NITROGLYCERIN]
- IC50: > 20 µM
- IC50 (read-out: pIC50 (converted)): > 20 µM

Structure (SMILES): NC(=O)c1cc([N+](=O)[O-])cc([N+](=O)[O-])c1 [NITROMIDE]
- IC50: > 20 µM
- IC50 (read-out: pIC50 (converted)): > 20 µM

Structure (SMILES): O=[N+]([O-])c1ccc(O)c2ncccc12 [NITROXOLINE]
- IC50: > 20 µM
- IC50 (read-out: pIC50 (converted)): > 20 µM

Structure (SMILES): CNC(=C[N+](=O)[O-])NCCSCc1csc(CN(C)C)n1 [NIZATIDINE]
- IC50: > 20 µM
- IC50 (read-out: pIC50 (converted)): > 20 µM

Structure (SMILES): Cc1ccc(Cn2c(NC3CCNCC3)nc3cccnc32)o1 [NOBERASTINE]
- IC50: > 20 µM
- IC50 (read-out: pIC50 (converted)): > 20 µM

Structure (SMILES): COC(=O)Nc1nc2cc(C(=O)c3cccs3)ccc2[nH]1 [NOCODAZOLE]
- IC50: > 20 µM
- IC50 (read-out: pIC50 (converted)): > 20 µM

Structure (SMILES): CC(=O)O[C@]1(C(C)=O)CC[C@H]2[C@@H]3C=C(C)C4=CC(=O)CC[C@@H]4[C@H]3CC[C@@]21C [NOMEGESTROL ACETATE]
- IC50: > 20 µM
- IC50 (read-out: pIC50 (converted)): > 20 µM

Structure (SMILES): CCC(OC(C)=O)C(CC(C)NC)(c1ccccc1)c1ccccc1 (configuration not stated) [NORACYMETHADOL]
- IC50: > 20 µM
- IC50 (read-out: pIC50 (converted)): > 20 µM

Structure (SMILES): COc1ccc2c3c1O[C@H]1[C@@H](O)C=C[C@H]4[C@@H](C2)NCC[C@@]341 [NORCODEINE]
- IC50: > 20 µM
- IC50 (read-out: pIC50 (converted)): > 20 µM

Structure (SMILES): O=C1CN=C(c2ccccc2)c2cc(Cl)ccc2N1 [NORDAZEPAM]
- IC50: > 20 µM
- IC50 (read-out: pIC50 (converted)): > 20 µM

Structure (SMILES): NC[C@H](O)c1ccc(O)c(O)c1 [NOREPINEPHRINE]
- IC50: > 20 µM
- IC50 (read-out: pIC50 (converted)): > 20 µM

Structure (SMILES): C#C[C@]1(OC(C)=O)CC[C@H]2[C@@H]3CCC4=CC(=O)CC[C@@H]4[C@H]3CC[C@@]21C [NORETHINDRONE ACETATE]
- IC50: > 20 µM
- IC50 (read-out: pIC50 (converted)): > 20 µM

Structure (SMILES): C#C[C@]1(O)CC[C@H]2[C@@H]3CCC4=CC(=O)CC[C@@H]4[C@H]3CC[C@@]21C [NORETHINDRONE]
- IC50: > 20 µM
- IC50 (read-out: pIC50 (converted)): > 20 µM

Structure (SMILES): C#C[C@]1(O)CC[C@H]2[C@@H]3CCC4=C(CCC(=O)C4)[C@H]3CC[C@@]21C [NORETHYNODREL]
- IC50: > 20 µM
- IC50 (read-out: pIC50 (converted)): > 20 µM

Structure (SMILES): NCC(O)c1cccc(O)c1 (configuration not stated) [NORFENEFRINE]
- IC50: > 20 µM
- IC50 (read-out: pIC50 (converted)): > 20 µM

Structure (SMILES): CCn1cc(C(=O)O)c(=O)c2cc(F)c(N3CCNCC3)cc21 [NORFLOXACIN]
- IC50: > 20 µM
- IC50 (read-out: pIC50 (converted)): > 20 µM

Structure (SMILES): c1ccc2c(c1)[nH]c1cnccc12 [NORHARMANE]
- IC50: > 20 µM
- IC50 (read-out: pIC50 (converted)): > 20 µM

Structure (SMILES): CCC(=O)C(CCN(C)C)(c1ccccc1)c1ccccc1 [NORMETHADONE]
- IC50: > 20 µM
- IC50 (read-out: pIC50 (converted)): > 20 µM

Structure (SMILES): Oc1ccc2c3c1O[C@H]1[C@@H](O)C=C[C@H]4[C@@H](C2)NCC[C@@]341 [NORMORPHINE]
- IC50: > 20 µM
- IC50 (read-out: pIC50 (converted)): > 20 µM

Structure (SMILES): CCC(=O)C(CCN1CCCCC1)(c1ccccc1)c1ccccc1 [NORPIPANONE]
- IC50: > 20 µM
- IC50 (read-out: pIC50 (converted)): > 20 µM

Structure (SMILES): CO[C@@H]1[C@@H](OC(N)=O)[C@@H](O)[C@H](Oc2ccc3c(O)c(NC(=O)c4ccc(O)c(CC=C(C)C)c4)c(=O)oc3c2C)OC1(C)C [NOVOBIOCIN]
- IC50: > 20 µM
- IC50 (read-out: pIC50 (converted)): > 20 µM

Structure (SMILES): Cc1nnc(C(CCN2CC3CCC2CC3)(c2ccccc2)c2ccccc2)o1 [NUFENOXOLE]
- IC50: > 20 µM
- IC50 (read-out: pIC50 (converted)): > 20 µM

Structure (SMILES): CC(CCc1ccccc1)NC(C)C(O)c1ccc(O)cc1 (configuration not stated) [NYLIDRIN]
- IC50: > 20 µM
- IC50 (read-out: pIC50 (converted)): > 20 µM

Structure (SMILES): CN(C)C[C@H]1CCCC[C@]1(O)c1cccc(O)c1 [O-DESMETHYL TRAMADOL]
- IC50: > 100 µM
- IC50 (read-out: pIC50 (converted)): > 100 µM

Structure (SMILES): Cc1nc2c(C)cccn2c(=O)c1CCN1CCC(c2noc3cc(F)ccc23)CC1 [OCAPERIDONE]
- IC50: > 20 µM
- IC50 (read-out: pIC50 (converted)): > 20 µM

Structure (SMILES): CCCCCCCC(=O)O [OCTANOIC ACID]
- IC50: > 20 µM
- IC50 (read-out: pIC50 (converted)): > 20 µM

Structure (SMILES): CCOc1cc(-c2nccc3cc(OC)c(OC)cc23)cc(OCC)c1OCC [OCTAVERINE]
- IC50: > 20 µM
- IC50 (read-out: pIC50 (converted)): > 20 µM

Structure (SMILES): CCCCCCCCN=c1ccn(CCCCCCCCCCn2ccc(=NCCCCCCCC)cc2)cc1 [OCTENIDINE]
- IC50: > 20 µM
- IC50 (read-out: pIC50 (converted)): > 20 µM

Structure (SMILES): NCC(O)c1ccc(O)cc1 (configuration not stated) [OCTOPAMINE]
- IC50: > 20 µM
- IC50 (read-out: pIC50 (converted)): > 20 µM

Structure (SMILES): CC1COc2c(N3CCN(C)CC3)c(F)cc3c(=O)c(C(=O)O)cn1c23 (configuration not stated) [OFLOXACIN]
- IC50: > 20 µM
- IC50 (read-out: pIC50 (converted)): > 20 µM

Structure (SMILES): Cc1cc2c(s1)Nc1ccccc1N=C2N1CCN(C)CC1 [OLANZAPINE]
- IC50: > 20 µM
- IC50 (read-out: pIC50 (converted)): > 20 µM

Structure (SMILES): O=C(c1cc(Cc2n[nH]c(=O)c3ccccc23)ccc1F)N1CCN(C(=O)C2CC2)CC1 [OLAPARIB]
- IC50: > 20 µM
- IC50 (read-out: pIC50 (converted)): > 20 µM
